Measurements reported in ChEMBL document CHEMBL3886587, “Antagonists of prostaglandin EP3 receptor” (2016).

Target: T1, Prostaglandin E2 receptor EP3 subtype (Homo sapiens, UniProt P43115)
T1 sequence (P43115 whole entry): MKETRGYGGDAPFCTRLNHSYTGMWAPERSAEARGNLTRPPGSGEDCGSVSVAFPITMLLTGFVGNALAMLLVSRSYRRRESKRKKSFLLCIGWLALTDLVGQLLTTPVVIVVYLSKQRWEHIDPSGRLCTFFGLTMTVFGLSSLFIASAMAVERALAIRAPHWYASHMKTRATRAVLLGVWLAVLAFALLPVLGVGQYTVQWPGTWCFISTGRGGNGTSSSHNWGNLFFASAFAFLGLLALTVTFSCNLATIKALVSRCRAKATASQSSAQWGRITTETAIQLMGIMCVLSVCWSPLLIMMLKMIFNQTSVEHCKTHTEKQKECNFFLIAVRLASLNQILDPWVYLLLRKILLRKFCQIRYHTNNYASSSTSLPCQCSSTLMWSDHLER
Test: EP3 Radioligand SPA Binding Assay: Test compounds were half log serially diluted in 100% DMSO (J. T. Baker #922401). 1 uL of each compound was added to appropriate wells of a 384-well plate (Matrix Cat #4322). Unlabeled PGE2 (Tocris Cat #2296) at a final concentration of 1 uM was used to determine non-specific binding. 1 uL of 100% DMSO (J. T. Baker #922401) was used to determine total binding. Millipore EP3 Chem1 membranes (prepared in-house from cell paste derived from the Millipore ChemiSCREEN Human Recombinant EP3 Prostanoid Receptor Calcium-Optimized Stable Cell Line (Millipore Cat #HTS092C. http://www.millipore.com/catalogue/item/hts092c)) were thawed and diluted in binding buffer (50 mM Hepes pH 7.4 (Lonza Cat #17-737), 5 mM MgCl2 (Sigma-M1028), and 0.1% BSA (Sigma A-7409)) to a final concentration of 1 ug/25 uL. 25 uL of diluted membranes were added to prepared compound plates. WGA coated PVT SPA Beads (Perkin Elmer Cat #RPNQ0060) were diluted in binding buffer to a concentration of 4 ug/ul, and 25 uL of the SPA bead mixture was then added to each well for a final assay concentration of 100 ug/well. [3H]-PGE2 (Perkin Elmer Cat #NET428) was diluted in binding buffer to a concentration of […], and 25 uL was added to all wells for a final assay concentration of 1.125 nM. Plates were incubated for 30 minutes at r.t. (approximately 25° C.) with shaking. […]

Ki: 13.9 nM
Structure (SMILES): Cn1ncc2c(F)cc(-c3ccc([C@@]4(C)CCCNC4=O)c(=O)[nH]3)cc21
